Measurements: publication PMC7279038, “Antioxidant and Neuroprotective Effects Induced by Cannabidiol and Cannabigerol in Rat CTX-TNA2 Astrocytes and Isolated Cortexes” (International Journal of Molecular Sciences, 2020)

Experiments:
[1] = DPPH scavenging ability test; conditions: mean ± S.D., n = 3
Method: For the 1,1-diphenyl-2-picrylhydrazyl (DPPH) radical scavenging assay, sample solution was added to 4 mL of a 0.004% methanol solution of DPPH. The sample absorbance was read at 517 nm after a 30 min incubation at room temperature in the dark. DPPH radical scavenging activity was expressed as IC50 values.

[2] = Ferric reducing antioxidant power (FRAP); conditions: mean ± S.D., n = 3
Method: For the ferric reducing antioxidant power (FRAP) activity assay, sample solution was added to premixed FRAP reagent (2 mL) containing acetate buffer (0.3 M, pH 3.6), 2,4,6-tris(2-pyridyl)-S-triazine (TPTZ) (10 mM) in 40 mM HCl and ferric chloride (20 mM) in a ratio of 10:1:1 (v/v/v). Then, the sample absorbance was read at 593 nm after a 30 min incubation at room temperature. FRAP activity was expressed as IC50 values.

[3] = Cupric reducing antioxidant capacity (CUPRAC); conditions: mean ± S.D., n = 3
Method: For the cupric ion reducing activity (CUPRAC) activity assay, sample solution was added to premixed reaction mixture containing CuCl2 (1 mL, 10 mM), neocuproine (1 mL, 7.5 mM) and NH4Ac buffer (1 mL, 1 M, pH 7.0). Similarly, a blank was prepared by adding sample solution (0.5 mL) to premixed reaction mixture […] without CuCl2. Then, the sample and blank absorbances were read at 450 nm after a 30 min incubation at room temperature. The absorbance of the blank was subtracted from that of the sample. CUPRAC activity was expressed as IC50 values.

[4] = system: CTX-TNA2 astrocyte cell line; assay: Apoptosis occurrence, Annexin-V/PI flow cytometry; type: cell-based, rat; conditions: challenged with H2O2; CBD 1000 nM, CBG 1 nM; 24 h, lasting up to 48 h
Method: The CTX-TNA2 rat astrocytes were purchased from the European Collection of Cell Cultures (ECACC), Sigma-Aldrich, Milan, Italy, and cultured as already indicated. Cells were grown in Dulbecco’s Modified Eagle Medium supplemented with 10% of FBS and penicillin–streptomycin (100 µgmL^−1) (all from EuroClone SpA Life-Sciences-Division, Milan, Italy) and maintained in a humified atmosphere of 5% CO2 at 37 °C. Cells were subcultivated at a ratio of 1.2 to 1.8 and the medium was changed every 3 days. CTX-TNA2 astrocytes were plated in 25 or 75 cm^2 flasks, according to experimental needing and cells between the eight and the 15 passage were used.
When indicated, the cells were treated with H2O2 300 µM for three hours and different concentrations of CBD (1–1000 nM) and CBG (1–1000 nM). The stock solutions were diluted in cell medium to the point that the concentration of DMSO in the samples was less than 0.0003%. Therefore, the addition of DMSO to the control samples was not necessary.
A FITC Annexin-V apoptosis detection kit (BD Pharmingen, San Diego, CA, USA) was used to assess apoptosis, according to the manufacturer’s instructions. […] After the addition of 200 µL of binding buffer, samples were analyzed with a Cytoflex flow cytometer with the FL1 and FL3 detector in a log mode, using the Cytoexpert analysis software (both from Beckmann Coulter). […]

[5] = system: isolated rat cortexes, 5HIIA/5-HT ratio; assay: K+ 60 mM neurotoxicity paradigm, 5-HT turnover; conditions: CBD 1000 nM, CBG 1 nM
Method: Sprague–Dawley rats (200–250 g) were sacrificed by CO2 inhalation (Italian Health Ministry authorization N. F4738.N.XTQ, delivered on 11th November 2018) and isolated prefrontal cortex specimens were immediately explanted and incubated in thermostatic shaking bath at 37 °C for 1 h (incubation period), in Krebs–Ringer buffer at the following K^+ concentrations:
Cortexes were stimulated with CBD (1000 nM) and CBD (1 nM). Afterwards, specimens were homogenized in perchloric acid solution (0.05 M) for the extraction and quantification of nitrites, via the aforementioned colorimetric Griess assay, and serotonin (5-HT), 5-hydroxyindoleacetic (5HIIA),3-hydroxykinurenine (3-HK) and kinurenic acid (KA) (ng/mg wet tissue) via high performance liquid chromatography analysis. […]
Tissue 3-HK, 5-HT and 5HIIA levels were analyzed through an HPLC apparatus consisting of a Jasco (Tokyo, Japan) PU-2080 chromatographic pump and an ESA (Chelmsford, MA, USA) Coulochem III coulometric detector, equipped with a microdialysis cell (ESA-5014b), a porous graphite working electrode and a solid state palladium reference electrode. The analytical conditions for identification and quantification were selected according to previous studies. […] The chromatograms were monitored at the analytical detector 2. […] Sample concentrations were calculated by linear regression curve (y = bx + m) obtained with standard. […]

| SMILES | IC50 [1] [µM] | IC50 [2] [µM] | IC50 [3] [µM] | early apoptosis (Annexin-Vpos/PIneg cells) [4] | effect on K+ 60 mM-induced increase in 5-HT turnover (5HIIA/5-HT ratio) [5] |
| --- | --- | --- | --- | --- | --- |
| C=C(C)[C@@H]1CCC(C)=C[C@H]1c1c(O)cc(CCCCC)cc1O [CBD, Cannabidiol] | 1870 ± 40 | > 2000 | 940 ± 10 | reduce early apoptosis | able to prevent the 5-HT depletion |
| CCCCCc1cc(O)c(C/C=C(\C)CCC=C(C)C)c(O)c1 [CBG, cannabigerol] | 1950 ± 10 | > 2000 | 590 ± 10 | reduce early apoptosis | able to prevent the 5-HT depletion |
